Assay results: patent publication US9085603B2, “Progesterone receptor antagonists” (Bayer Intellectual Property GmbH, priority 2010, dated 2015)

Biological target: T1, human progesterone receptor A (Homo sapiens, UniProt P06401)
T1 construct: expressed in transfected cells; host or cells: SK-N-MC human neuroblastoma cells, stably transfected with pRChPR-A-neo and pMMTV-LUC
T1 sequence (P06401 1-769 isoform P06401-2): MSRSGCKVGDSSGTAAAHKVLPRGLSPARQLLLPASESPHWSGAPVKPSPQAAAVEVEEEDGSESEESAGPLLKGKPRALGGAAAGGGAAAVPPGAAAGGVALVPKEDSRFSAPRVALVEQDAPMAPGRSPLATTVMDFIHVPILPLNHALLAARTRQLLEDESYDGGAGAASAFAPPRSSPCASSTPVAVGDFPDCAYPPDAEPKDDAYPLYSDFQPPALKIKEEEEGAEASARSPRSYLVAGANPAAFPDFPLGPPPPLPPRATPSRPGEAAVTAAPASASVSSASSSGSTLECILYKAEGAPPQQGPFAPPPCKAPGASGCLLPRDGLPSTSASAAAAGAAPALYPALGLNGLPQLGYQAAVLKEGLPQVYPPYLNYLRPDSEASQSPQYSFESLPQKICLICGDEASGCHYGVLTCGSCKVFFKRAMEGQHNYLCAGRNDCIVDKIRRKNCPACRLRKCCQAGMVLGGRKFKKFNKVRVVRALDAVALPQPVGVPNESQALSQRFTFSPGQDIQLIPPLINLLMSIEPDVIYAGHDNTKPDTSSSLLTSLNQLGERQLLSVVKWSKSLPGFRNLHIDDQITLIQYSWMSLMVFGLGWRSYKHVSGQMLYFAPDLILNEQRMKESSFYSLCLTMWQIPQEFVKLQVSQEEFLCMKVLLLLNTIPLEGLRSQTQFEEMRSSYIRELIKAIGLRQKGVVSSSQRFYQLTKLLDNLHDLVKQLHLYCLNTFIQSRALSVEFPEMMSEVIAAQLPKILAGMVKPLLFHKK
Test: Progesterone receptor antagonistic effect in stably transfected SK-N-MC cells, MTV-LUC reporter (PR-A)
Format: cell-based
Details: antagonism of 0.1 nmol/l promegestone, luciferase reporter, 24 hours
Method: Progesterone Receptor Antagonistic Effect in Stable Transfectants of Human Neuroblastoma Cells (SK-N-MC cells) with the Human Progesterone A or Progesterone B Receptor and a MTV-LUC Reporter Construct
SK-N-MC cells (human neuroblastoma cells), which have been stably transfected with plasmids which express the human progesterone receptor B (pRChPR-B-neo) or the human progesterone receptor A (pRChPR-A-neo) and a reporter construct (pMMTV-LUC), were incubated for 24 hours either in the absence (negative control) or in the presence of increasing amounts of the particular test compound (0.01 nmol/l, 0.1 nmol/l, 1 nmol/l, 10 nmol/l, 100 nmol/l and 1 μmol/l) in order to determine the agonistic efficacy. As a positive control of the reporter gene induction, the cells were treated with the synthetic gestagen promegestone (0.01 nmol/l, 0.1 nmol/l, 1 nmol/l, 10 nmol/l, 100 nmol/l and 1 μmol/l). To determine the antagonistic activity, the cells were treated with 0.1 nmol/l of promegestone and additionally with increasing amounts of the particular test compound (0.01 nmol/l, 0.1 nmol/l, 1 nmol/l, 10 nmol/l, 100 nmol/l and 1 μmol/l). The activity of the reporter gene LUC (LUC=luciferase) was determined in the cell lysates and measured as RLU (relative light units). All measurement values are given as percentage efficacy and as EC50 or IC50 concentrations.

Question: Which IC50 does the source give for `COc1cccc(NCc2ccc([C@H]3C[C@@]4(C)[C@@H](CC[C@@]4(O)C(F)(F)C(F)(F)F)[C@@H]4CCC5=CC(=O)CCC5=C43)cc2)c1` [Example 22, (11β,17β)-17-Hydroxy-11-(4-{[(3-methoxyphenyl)amino]methyl}phenyl)-17-(pentafluoroethyl)estra-4,9-dien-3-one] here?
Answer: 2.52 nM

Question: How did the IC50 turn out when `CN(Cc1ccncc1)Cc1ccc([C@H]2C[C@@]3(C)[C@@H](CC[C@@]3(O)C(F)(F)C(F)(F)F)[C@@H]3CCC4=CC(=O)CCC4=C32)cc1` [Example 26, (11β,17β)-17-Hydroxy-11-(4-{[methyl(pyridin-4-ylmethyl)amino]methyl}phenyl)-17-(pentafluoroethyl)estra-4,9-dien-3-one] was run?
Answer: 4.65 nM

Question: With `C[C@]12C[C@H](c3ccc(CN4CCN(c5ccncc5)CC4)cc3)C3=C4CCC(=O)C=C4CC[C@H]3[C@@H]1CC[C@@]2(O)C(F)(F)C(F)(F)F` [Example 50, (11β,17β)-17-Hydroxy-17-(pentafluoroethyl)-11-(4-{[4-(pyridin-4-yl)piperazin-1-yl]methyl}phenyl)estra-4,9-dien-3-one] as the compound, how does the IC50 read?
Answer: 1.2 nM

Question: Which IC50 does the source give for `C[C@]12C[C@H](c3ccc(CN4CCN(c5ccccc5)CC4)cc3)C3=C4CCC(=O)C=C4CC[C@H]3[C@@H]1CC[C@@]2(O)C(F)(F)C(F)(F)F` [Example 25, (11β,17β)-17-Hydroxy-17-(pentafluoroethyl)-11-{4-[(4-phenylpiperazin-1-yl)methyl]phenyl}estra-4,9-dien-3-one] here?
Answer: 3.06 nM

Question: For `C[C@]12C[C@H](c3ccc(CNc4ccc(C(N)=O)cc4)cc3)C3=C4CCC(=O)C=C4CC[C@H]3[C@@H]1CC[C@@]2(O)C(F)(F)C(F)(F)F` [Example 32, 4-({4-[(11β,17β)-17-Hydroxy-3-oxo-17-(pentafluoroethyl)estra-4,9-dien-11-yl]benzyl}amino)benzamide], which IC50 is on record?
Answer: 0.78 nM

Question: Which IC50 does the source give for `C[C@]12C[C@H](c3ccc(CNc4cccc(C(N)=O)c4)cc3)C3=C4CCC(=O)C=C4CC[C@H]3[C@@H]1CC[C@@]2(O)C(F)(F)C(F)(F)F` [Example 53, 3-({4-[(11β,17β)-17-Hydroxy-3-oxo-17-(pentafluoroethyl)estra-4,9-dien-11-yl]benzyl}amino)benzamide] here?
Answer: 0.84 nM

Question: For `COC(=O)c1ccccc1NCc1ccc([C@H]2C[C@@]3(C)[C@@H](CC[C@@]3(O)C(F)(F)C(F)(F)F)[C@@H]3CCC4=CC(=O)CCC4=C32)cc1` [Example 28, Methyl 2-({4-[(11β,17β)-17-hydroxy-3-oxo-17-(pentafluoroethyl)estra-4,9-dien-11-yl]benzyl}amino)benzoate], which IC50 is on record?
Answer: 5.05 nM

Question: With `CC(=O)Nc1ccc(NCc2ccc([C@H]3C[C@@]4(C)[C@@H](CC[C@@]4(O)C(F)(F)C(F)(F)F)[C@@H]4CCC5=CC(=O)CCC5=C43)cc2)cc1` [Example 38, N-[4-({4-[(11β,17β)-17-Hydroxy-3-oxo-17-(pentafluoroethyl)estra-4,9-dien-11-yl]benzyl}amino)phenyl]acetamide] as the compound, how does the IC50 read?
Answer: 0.66 nM

Question: Which IC50 does the source give for `C[C@]12C[C@H](c3ccc(CN4CCN(Cc5cccnc5)CC4)cc3)C3=C4CCC(=O)C=C4CC[C@H]3[C@@H]1CC[C@@]2(O)C(F)(F)C(F)(F)F` [Example 44, (11β,17β)-17-Hydroxy-17-(pentafluoroethyl)-11-(4-{[4-(pyridin-3-ylmethyl)piperazin-1-yl]methyl}phenyl)estra-4,9-dien-3-one] here?
Answer: 3.06 nM

Question: With `C[C@]12C[C@H](c3ccc(CN4CCN(Cc5ccccn5)CC4)cc3)C3=C4CCC(=O)C=C4CC[C@H]3[C@@H]1CC[C@@]2(O)C(F)(F)C(F)(F)F` [Example 43, (11β,17β)-17-Hydroxy-17-(pentafluoroethyl)-11-(4-{[4-(pyridin-2-ylmethyl)piperazin-1-yl]methyl}phenyl)estra-4,9-dien-3-one] as the compound, how does the IC50 read?
Answer: 2.88 nM

Question: `C[C@]12C[C@H](c3ccc(CNc4ccccc4)cc3)C3=C4CCC(=O)C=C4CCC3C1CC[C@@]2(O)C(F)(F)C(F)(F)F` (stereo partly drawn) [Example 20, (11β,17β)-11-[4-(Anilinomethyl)phenyl]-17-hydroxy-17-(pentafluoroethyl)estra-4,9-dien-3-one] was tested. Which IC50 did it give?
Answer: 1.64 nM
